Values quoted from earlier work as cited in US20230313389A1, “APPARATUS AND METHOD FOR THE ELECTROLYTIC PRODUCTION OF HYPOCHLOROUS ACID” (GROUPE OXWELL INC., priority 2020, published 2023).

What was measured:
[1] = system: viruses, including coronaviruses; conditions: variety of viruses
[2] = under ideal conditions
[3] = as disinfectant

In the case of OCl [HOCl, Hypochlorous acid], the “time to inactivate viruses” value [1] is listed as “less than 1 minute”, the “shelf life (time HOCl is effective)” value [2] is listed as “up to 2 weeks” and the “effectiveness relative to chlorine in the form of ClO-” value [3] is listed as 100 times.
